Earlier results in article PMC9109461, “Challenges and opportunities in the development of metal-based anticancer theranostic agents” (Bioscience Reports, 2022).

Experiments:
[1] = tested on: HeLa cells; design: method as in PMID 28948792; conditions: MTT assay
[2] = tested on: A549R; design: method as in PMID 30888144; conditions: A549R cells
[3] = tested on: CaSki cells; design: method as in PMID 30551086

Q: Which results are given for [(cis-Pt(NH3)2Cl2] [cisplatin]?
A: IC50 [1]: 3 ± 1.2 µM; IC50 [2]: 51.3 ± 1.9 µM; IC50 [3]: 4.2 µM
